# Calls of active or inactive are those of the source. The rule behind the calls is not given here.
# Assays:
# Staphylococcus aureus [1] = test: Inhibition of FabB/FabF in methicillin-resistant Staphylococcus aureus 2957 clinical isolate assessed as antibacterial activity after 16 hrs by agar dilution method
# Staphylococcus aureus [2] = test: Inhibition of FabB/FabF in methicillin-resistant Staphylococcus aureus 2980 clinical isolate assessed as antibacterial activity after 16 hrs by agar dilution method
# Staphylococcus aureus [3] = test: Inhibition of FabB/FabF in methicillin-resistant Staphylococcus aureus 3056 clinical isolate assessed as antibacterial activity after 16 hrs by agar dilution method
# Staphylococcus aureus [4] = test: Inhibition of FabB/FabF in methicillin-resistant Staphylococcus aureus 3065 clinical isolate assessed as antibacterial activity after 16 hrs by agar dilution method
# Staphylococcus aureus [5] = test: Inhibition of FabB/FabF in methicillin-resistant Staphylococcus aureus 3074 clinical isolate assessed as antibacterial activity after 16 hrs by agar dilution method
# Staphylococcus aureus [6] = test: Inhibition of FabB/FabF in methicillin-resistant Staphylococcus aureus 3082 clinical isolate assessed as antibacterial activity after 16 hrs by agar dilution method
# Staphylococcus aureus [7] = test: Inhibition of FabB/FabF in methicillin-resistant Staphylococcus aureus 3086 clinical isolate assessed as antibacterial activity after 16 hrs by agar dilution method
# Staphylococcus aureus [8] = test: Inhibition of FabB/FabF in methicillin-resistant Staphylococcus aureus 3090 clinical isolate assessed as antibacterial activity after 16 hrs by agar dilution method
# Staphylococcus aureus [9] = test: Inhibition of FabB/FabF in methicillin-resistant Staphylococcus aureus 3097 clinical isolate assessed as antibacterial activity after 16 hrs by agar dilution method
# Staphylococcus aureus [10] = test: Inhibition of FabB/FabF in methicillin-resistant Staphylococcus aureus 3105 clinical isolate assessed as antibacterial activity after 16 hrs by agar dilution method
# Staphylococcus aureus [11] = test: Inhibition of FabB/FabF in methicillin-resistant Staphylococcus aureus 3108 clinical isolate assessed as antibacterial activity after 16 hrs by agar dilution method
# Staphylococcus aureus [12] = test: Inhibition of FabB/FabF in methicillin-resistant Staphylococcus aureus 3116 clinical isolate assessed as antibacterial activity after 16 hrs by agar dilution method
# Staphylococcus aureus [13] = test: Inhibition of FabB/FabF in methicillin-resistant Staphylococcus aureus 3163 clinical isolate assessed as antibacterial activity after 16 hrs by agar dilution method
# Staphylococcus aureus [14] = test: Inhibition of FabB/FabF in methicillin-resistant Staphylococcus aureus assessed as antibacterial activity at 2 ug/disk after 18 hrs by agar disk diffusion method
# Staphylococcus aureus [15] = test: Antibacterial activity against methicillin-resistant Staphylococcus aureus infected in C57BL/6J mouse model of peritonitis assessed as mouse survival at 20 mg/kg, ip dosed at 1 hr and 5 hrs post infection and measured for 7 days relative to control; assay type: functional
# Staphylococcus aureus [16] = test: Antibacterial activity against methicillin-resistant Staphylococcus aureus infected in C57BL/6J mouse model of peritonitis assessed as mouse survival at 30 mg/kg, ip dosed at 1 hr and 5 hrs post infection and measured for 7 days relative to control; assay type: functional
# Staphylococcus aureus [17] = test: Antibacterial activity against methicillin-resistant Staphylococcus aureus infected in C57BL/6J mouse model of peritonitis assessed as mouse survival at 30 to 50 mg/kg, po administered via gavage measured after 2 days; assay type: functional, organism-based
# Staphylococcus aureus [18] = test: Antibacterial activity against methicillin-resistant Staphylococcus aureus infected in BALB/c mouse model of skin infection assessed as bacterial load in skin lesions at 2 mg administered topically as ointment twice daily for 7 days and measured at 24 hrs post last dose (7.9 +/- 0.9 x 10^8 CFU/g); assay type: functional
# Staphylococcus aureus [19] = test: Antibacterial activity against methicillin-resistant Staphylococcus aureus infected in BALB/c mouse model of skin wound assessed as reduction in appearance of secondary scald at 2 mg administered topically as ointment twice daily for 7 days and measured after 24 hrs by visual inspection method; assay type: functional, organism-based
# Staphylococcus aureus [20] = test: Antibacterial activity against methicillin-resistant Staphylococcus aureus infected in BALB/c mouse model of skin wound assessed as reduction in detachment of epidermis from dermis at 2 mg administered topically as ointment twice daily for 7 days and measured after 24 hrs by visual inspection method; assay type: functional, organism-based
# Staphylococcus aureus [21] = test: Antibacterial activity against methicillin-resistant Staphylococcus aureus infected in BALB/c mouse model of skin wound assessed as retainment of dermis layers at 2 mg administered topically as ointment twice daily for 7 days and measured and after 24 hrs by HE staining analysis; assay type: functional, organism-based
# Staphylococcus aureus [22] = test: Antibacterial activity against methicillin-resistant Staphylococcus aureus infected in BALB/c mouse model of skin wound assessed as retainment of fat layers at 2 mg administered topically as ointment twice daily for 7 days and measured after 24 hrs by HE staining analysis; assay type: functional, organism-based
compound,measurement,setting,value
C[C@]12C[C@@]34C=CC(=O)[C@@](C)(CCC(=O)Nc5c(O)ccc(C(=O)O)c5O)[C@@H]3[C@H](C[C@@H]1C4)O2,MIC,Staphylococcus aureus [1],1 µg/mL
same,MIC,Staphylococcus aureus [2],1 µg/mL
same,MIC,Staphylococcus aureus [3],1 µg/mL
same,MIC,Staphylococcus aureus [4],1 µg/mL
same,MIC,Staphylococcus aureus [5],1 µg/mL
same,MIC,Staphylococcus aureus [6],1 µg/mL
same,MIC,Staphylococcus aureus [7],1 µg/mL
same,MIC,Staphylococcus aureus [8],1 µg/mL
same,MIC,Staphylococcus aureus [9],1 µg/mL
same,MIC,Staphylococcus aureus [10],1 µg/mL
same,MIC,Staphylococcus aureus [11],1 µg/mL
same,MIC,Staphylococcus aureus [12],1 µg/mL
same,MIC,Staphylococcus aureus [13],1 µg/mL
C[C@]12C[C@@]34C=C(SC5CCCCC5)C(=O)[C@@](C)(CCC(=O)Nc5c(O)ccc(C(=O)O)c5O)[C@@H]3[C@H](C[C@@H]1C4)O2,inhibition,Staphylococcus aureus [14],Active
same,inhibition,Staphylococcus aureus [1],Active
same,inhibition,Staphylococcus aureus [2],Active
same,inhibition,Staphylococcus aureus [3],Active
same,inhibition,Staphylococcus aureus [4],Active
same,inhibition,Staphylococcus aureus [5],Active
same,inhibition,Staphylococcus aureus [6],Active
same,inhibition,Staphylococcus aureus [7],Active
same,inhibition,Staphylococcus aureus [8],Active
same,inhibition,Staphylococcus aureus [9],Active
same,inhibition,Staphylococcus aureus [10],Active
same,inhibition,Staphylococcus aureus [11],Active
same,inhibition,Staphylococcus aureus [12],Active
same,inhibition,Staphylococcus aureus [13],Active
same,survival at 20 mg/kg,Staphylococcus aureus [15],100%
same,survival at 30 mg/kg,Staphylococcus aureus [16],80%
same,Survival,Staphylococcus aureus [17],inactive
same,Activity,Staphylococcus aureus [18],2.7 ×10⁶ CFU/g
same,Activity,Staphylococcus aureus [19],Active
same,Activity,Staphylococcus aureus [20],Active
same,Activity,Staphylococcus aureus [21],Active
same,Activity,Staphylococcus aureus [22],Active
